What was measured:
ENaC = molecular target: T1, ENaC (Homo sapiens, UniProt P37088+P51168+P51170); assay: Short-circuit current (Isc) analysis in IL-13-treated HBE cells, amiloride response; assay type: cell-based; conditions: 25 μM, 30 min pre-treatment
T1 construct: endogenous in cells; host or cells: IL-13-treated primary human bronchial epithelial (HBE) cell cultures
T1 sequence (P37088 1-669): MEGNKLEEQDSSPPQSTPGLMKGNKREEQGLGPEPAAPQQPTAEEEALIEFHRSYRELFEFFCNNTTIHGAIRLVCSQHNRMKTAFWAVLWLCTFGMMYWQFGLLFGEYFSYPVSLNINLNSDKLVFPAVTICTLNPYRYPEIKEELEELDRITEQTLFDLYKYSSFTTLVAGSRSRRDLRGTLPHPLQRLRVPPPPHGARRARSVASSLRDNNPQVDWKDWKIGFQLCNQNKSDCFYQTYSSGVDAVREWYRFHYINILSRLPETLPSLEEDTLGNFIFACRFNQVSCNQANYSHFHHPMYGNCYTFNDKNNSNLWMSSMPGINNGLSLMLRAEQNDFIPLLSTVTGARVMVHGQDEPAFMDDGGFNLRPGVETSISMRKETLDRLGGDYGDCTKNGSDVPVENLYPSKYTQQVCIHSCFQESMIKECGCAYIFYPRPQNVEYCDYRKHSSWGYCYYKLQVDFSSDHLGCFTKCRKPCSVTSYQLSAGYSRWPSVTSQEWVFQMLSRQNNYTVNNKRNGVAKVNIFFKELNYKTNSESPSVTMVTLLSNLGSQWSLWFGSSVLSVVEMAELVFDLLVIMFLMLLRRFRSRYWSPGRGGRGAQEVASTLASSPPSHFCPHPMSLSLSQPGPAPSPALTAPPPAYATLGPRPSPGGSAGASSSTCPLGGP
T1 sequence (P51168 1-640): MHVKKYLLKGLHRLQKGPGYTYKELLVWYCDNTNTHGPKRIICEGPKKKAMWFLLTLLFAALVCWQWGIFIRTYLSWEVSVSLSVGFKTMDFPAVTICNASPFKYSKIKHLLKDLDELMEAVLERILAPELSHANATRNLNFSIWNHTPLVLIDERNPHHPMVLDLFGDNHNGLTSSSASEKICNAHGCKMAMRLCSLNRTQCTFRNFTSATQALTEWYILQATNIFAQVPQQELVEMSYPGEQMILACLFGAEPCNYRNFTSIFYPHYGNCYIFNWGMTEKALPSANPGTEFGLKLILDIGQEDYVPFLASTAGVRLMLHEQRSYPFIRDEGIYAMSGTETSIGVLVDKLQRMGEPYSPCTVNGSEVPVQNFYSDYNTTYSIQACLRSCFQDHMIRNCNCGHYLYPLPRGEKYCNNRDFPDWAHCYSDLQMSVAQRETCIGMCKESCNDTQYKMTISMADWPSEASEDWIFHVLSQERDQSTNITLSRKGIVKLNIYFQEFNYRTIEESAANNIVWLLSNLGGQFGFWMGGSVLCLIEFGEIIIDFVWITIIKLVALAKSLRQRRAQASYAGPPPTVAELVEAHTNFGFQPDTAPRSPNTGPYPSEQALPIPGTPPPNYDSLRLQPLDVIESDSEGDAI
T1 sequence (P51170 1-649): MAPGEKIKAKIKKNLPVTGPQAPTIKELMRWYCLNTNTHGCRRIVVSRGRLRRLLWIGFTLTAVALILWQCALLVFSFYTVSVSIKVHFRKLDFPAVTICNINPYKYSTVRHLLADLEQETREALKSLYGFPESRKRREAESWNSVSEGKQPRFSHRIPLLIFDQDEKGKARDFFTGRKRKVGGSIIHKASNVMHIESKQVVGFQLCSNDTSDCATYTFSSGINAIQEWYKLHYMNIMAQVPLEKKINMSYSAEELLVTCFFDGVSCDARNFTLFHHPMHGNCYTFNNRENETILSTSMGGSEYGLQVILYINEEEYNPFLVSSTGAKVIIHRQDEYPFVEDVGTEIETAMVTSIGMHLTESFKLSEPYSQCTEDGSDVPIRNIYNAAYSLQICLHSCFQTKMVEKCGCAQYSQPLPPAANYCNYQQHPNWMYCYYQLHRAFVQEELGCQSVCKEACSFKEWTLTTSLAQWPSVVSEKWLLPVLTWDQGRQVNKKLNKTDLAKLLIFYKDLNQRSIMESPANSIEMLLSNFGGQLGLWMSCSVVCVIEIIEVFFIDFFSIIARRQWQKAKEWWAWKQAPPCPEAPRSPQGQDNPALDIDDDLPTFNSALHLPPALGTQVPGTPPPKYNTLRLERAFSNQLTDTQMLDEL
Experimental: (§1) Further experiments were done with PDSinh-A01 because of its greater inhibition potency for Cl^−/HCO3^− exchange than PDSinh-C01. To investigate PDSinh-A01 specificity, the major ion transport pathways in HBE cells were studied by short-circuit current (Isc) analysis. Cells were treated with IL-13 to increase Ca^2+-activated Cl^− conductance (CaCC) activity. For Isc measurements, cells were sequentially treated with amiloride to inhibit the epithelial sodium channel (ENaC), forskolin to activate the cystic fibrosis transmembrane conductance regulator (CFTR), CFTRinh-172 to inhibit CFTR, and ATP to activate CaCC. In the absence of PDSinh-A01, ion channel modulators produced the anticipated changes in Isc (FIG. 4A).
(§2) IL-13-treated HBE cells were cultured on Snapwell clear permeable supports (12 mm diameter, 0.4 μm polyester membrane, Costar, Corning, Corning, N.Y.). Short-circuit current was measured using symmetrical HCO3^−-buffered solutions (in mM: 120 NaCl, 5 KCl, 1 MgCl2, 1 CaCl2, 5 Hepes, 25 NaHCO3; pH 7.4) as described, with ion transport modulators added to both apical and basolateral bathing solutions. Cells were equilibrated with 95% O2/5% CO2 and maintained at 37° C. during data acquisition. Statistical analysis was by Student's t-test.

CFTR = molecular target: T2, CFTR (Homo sapiens, UniProt P13569); assay: Short-circuit current (Isc) analysis in IL-13-treated HBE cells, forskolin / CFTRinh-172 response; assay type: cell-based; conditions: 25 μM, 30 min pre-treatment
T2 construct: endogenous in cells; host or cells: IL-13-treated primary HBE cell cultures (HBE = non-CF donors)
T2 sequence (P13569 whole entry): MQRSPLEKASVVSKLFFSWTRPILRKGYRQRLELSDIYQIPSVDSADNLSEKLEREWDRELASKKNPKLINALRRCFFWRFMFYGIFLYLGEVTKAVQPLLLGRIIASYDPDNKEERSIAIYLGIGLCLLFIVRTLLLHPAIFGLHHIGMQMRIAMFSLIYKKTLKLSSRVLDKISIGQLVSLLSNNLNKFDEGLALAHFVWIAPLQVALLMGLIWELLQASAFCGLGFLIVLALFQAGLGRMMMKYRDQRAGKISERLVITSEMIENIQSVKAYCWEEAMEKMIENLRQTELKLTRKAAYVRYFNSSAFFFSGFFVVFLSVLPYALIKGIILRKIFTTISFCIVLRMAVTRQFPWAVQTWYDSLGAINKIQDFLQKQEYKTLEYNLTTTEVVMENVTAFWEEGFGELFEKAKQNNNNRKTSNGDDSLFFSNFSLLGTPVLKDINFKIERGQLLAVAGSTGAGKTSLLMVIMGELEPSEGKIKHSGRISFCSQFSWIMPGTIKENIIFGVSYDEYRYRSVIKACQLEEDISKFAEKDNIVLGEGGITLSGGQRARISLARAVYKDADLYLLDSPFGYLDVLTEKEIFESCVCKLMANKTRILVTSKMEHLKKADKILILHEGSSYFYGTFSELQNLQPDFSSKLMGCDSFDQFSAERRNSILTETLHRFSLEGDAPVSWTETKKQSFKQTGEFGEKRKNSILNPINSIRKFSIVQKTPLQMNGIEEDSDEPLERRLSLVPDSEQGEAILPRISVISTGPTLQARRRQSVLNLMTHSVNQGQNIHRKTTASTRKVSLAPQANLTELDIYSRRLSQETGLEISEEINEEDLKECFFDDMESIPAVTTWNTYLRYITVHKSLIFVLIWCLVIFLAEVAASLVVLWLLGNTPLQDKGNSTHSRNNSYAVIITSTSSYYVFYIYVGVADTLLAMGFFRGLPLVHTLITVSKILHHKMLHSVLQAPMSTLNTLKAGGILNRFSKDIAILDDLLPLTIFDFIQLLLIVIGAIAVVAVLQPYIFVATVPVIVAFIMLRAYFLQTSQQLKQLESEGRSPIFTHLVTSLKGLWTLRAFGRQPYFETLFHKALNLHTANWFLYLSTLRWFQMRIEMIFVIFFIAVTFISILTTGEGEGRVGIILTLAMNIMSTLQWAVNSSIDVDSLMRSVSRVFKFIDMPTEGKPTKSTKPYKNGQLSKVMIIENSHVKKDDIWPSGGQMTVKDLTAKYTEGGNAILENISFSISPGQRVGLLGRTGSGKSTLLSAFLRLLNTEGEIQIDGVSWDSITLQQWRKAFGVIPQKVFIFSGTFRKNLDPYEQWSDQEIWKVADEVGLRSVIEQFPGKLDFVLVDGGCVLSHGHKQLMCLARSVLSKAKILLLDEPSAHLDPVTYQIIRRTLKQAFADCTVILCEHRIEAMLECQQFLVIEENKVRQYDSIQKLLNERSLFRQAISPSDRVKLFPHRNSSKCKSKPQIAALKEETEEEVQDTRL
Experimental: as §1, §2

- effect on ENaC activity (Isc response) (ENaC): did not affect the activity
- effect on CFTR activity (Isc response) (CFTR): did not affect the activity
SMILES: Cn1nc(COc2cccc(F)c2)c2c1CCN(C(=O)Nc1ccc(Cl)cc1)C2 [PDSinh-A01]

Reference: patent US10702506B2, “Small molecule inhibitors of pendrin ion exchange and pharmaceutical compositions” (THE REGENTS OF THE UNIVERSITY OF CALIFORNIA, priority 2016, dated 2020)
